Experimental data as given in patent US20120238532A1, “TREATMENT OF HUMAN OSTEOSARCOMA” (CEDARS-SINAI MEDICAL CENTER, priority 2009, published 2012).

System: MG-63 xenografts
Assay: Growth of MG-63 xenografts in athymic nude mice
Format: in vivo
Method: All animal experiments strictly followed the guidelines of Cedars-Sinai Medical Center and the National Institute of Health (NIH). Female nu/nu athymic nude mice (5-6 weeks old; average weight 21 g; specific pathogen-free) from Harlan Laboratories (Indianapolis, Ind.) were maintained in pathogen-free condition with sterilized chow and water. 5×10^6 cells of MG-63 cells were mixed with 200 μl of Matrigel solution (BD Biosciences) per injection, and the mixture was injected subcutaneously on the upper flanks of nude mice. After 24 hours, tumor size was measured, and any outliers were ruled out by one-way analysis of variance (ANOVA) test. […] The conversion was made using dose translation formula by Reagan-Shaw et al., (15). […] Body weights were monitored every 2 days. Tumor size was measured every 2 days, and the tumor volume was calculated using the following formula: A (length)×B (width)×C (height)×0.5236 (16). The experiment was stopped at day 35, and all mice were sacrificed. The presence of metastatic spread was examined macroscopically at the time of autopsy followed by histological examination. At least two tumors from each group were snap-frozen in liquid nitrogen for Western blotting.

CC(=O)OC(C)(C)/C=C/C(=O)[C@](C)(O)[C@H]1[C@H](O)C[C@@]2(C)[C@@H]3CC=C4[C@H](C[C@H](O)C(=O)C4(C)C)[C@]3(C)C(=O)C[C@]12C [CuB, cucurbitacin B]
tumor growth inhibition (HD-CuB 1.0 mg/kg alone): strong growth inhibition | tumor volume (LD-CuB 0.5 mg/kg, single agent): allowed the tumor volume to increase slightly from its original size
